These results are taken from patent US6544994B2, “Pharmaceutical preparation for treating or preventing cardiovascular or neurological disorders by modulating of the activity of nitric oxide synthase” (Eprov AG, priority 2000, dated 2003).

The target in one data set is xanthine oxidase (XO) (Homo sapiens, UniProt P47989). The text has this:
Assessment of urate levels (assessed with a uricase-hydrogen peroxide assay) is a standard method to determine enzymatic activity of XO. However, reductive substance, like vitamin C or NUHF, are known to interfere with the urate determination.

Data set [1] in a line: Competitive superoxide trapping (CST) with DEPMPO in HX/XO system, EPR. In kind it is biochemical. To be noted: for k/kd, reaction rate with superoxide relative to reference spin trap DEPMPO / k, reaction rate with superoxide: pH 7.4, 37° C.; for k, reaction rate with superoxide: based on kd=80 (Ms)^−1; for superoxide scavenging, times less potent/slower than ascorbic acid: relative to ascorbic acid. How it is done:
The EPR spectra were recorded at 37° C. on a modified Bruker ESP 300. Spin trap experiments were performed with both HX/XO and eNOS. For HX/XO the solution contained 0.5 mM hypoxanthine, 12.5 mU/ml xanthine oxidase and 50 mM DEPMPO in phosphate buffer (pH 7.4). The eNOS assay contained 250 nM eNOS dimers (0.065 mg protein/ml), 0.5 mM NADPH, 10 μM L-arginine, 1 mM CaCl2, 300 U/ml catmodulin and 50 mM DEPMPO in phosphate buffer (pH 7.4).
The reaction rates with superoxide are given by k for the tested substance and kd for the reference compound DEPMPO respectively.

The target of data set [2] is T1, eNOS (Bos taurus, UniProt P29473). Briefly: NO-production by eNOS, [3H]arginine to [3H]citrulline conversion. Set-up: made in house; host or cells: E. coli. Type of data set: biochemical, bovine. The following applies: 100 μM final. How it is done: 5-methyl-(6 S)-tetrahydrofolic acid, and its stereoisomer, 5-methyl-(6R)-tetrahydrofolic acid were used in purities>99.8%. The spin trap, 5-diethoxy-phosphoryl-5-methyl-1-pyrroline-N-oxide (DEPMPO) and all other used chemicals are commercially available.
NOS activity was determined by quantifying the conversion of L-[2,3,4.5-^3H]arginine into L-[2,3,4,5-^3H]-citrulline. […] All measurements were performed in triplicate. After correction for nonspecific activity, eNOS activity was calculated from the percent conversion of [^3H]-arginine into [^3H]-citrulline and expressed as nmoles per mg protein per min.

Data set [3] relates to microvascular endothelial bEND3 cells. Briefly: NO production by endothelial cells, nitrite content in supernatant. Type of data set: cell-based. To be noted: preincubation 24 hours; for acetylcholine-induced nitrite production: 5-methyltetrahydrofolic acid 1 and 10 μM, sepiapterin 100 μM, p<0.05 vs. saline. How it is done: The NO production by endothelial cells was assessed by quantification of the nitrite content in the supernatant with a commercially available fluorimetric kit (Cayman Chemicals). Acetylcholine-induced NO production is presented as the difference between stimulated minus the unstimulated nitrite content.

Data set [4] addresses T1, eNOS. As to the kind of experiment: Superoxide production by eNOS, DEPMPO spin trap EPR.
For data set [5] the following is noted: cited from earlier work.
The conditions of data set [6]: cited from earlier work. The source holds these as a separate data set.
The mark [7] stands for this setting: pterin-repleted eNOS, p<0.05 vs. BH4 alone.

Where two headings read alike, the source gives them in different places. Where only a bound is given, the exact number is not on record here.

Chain of xanthine oxidase (XO) (P47989 whole entry, species assumed): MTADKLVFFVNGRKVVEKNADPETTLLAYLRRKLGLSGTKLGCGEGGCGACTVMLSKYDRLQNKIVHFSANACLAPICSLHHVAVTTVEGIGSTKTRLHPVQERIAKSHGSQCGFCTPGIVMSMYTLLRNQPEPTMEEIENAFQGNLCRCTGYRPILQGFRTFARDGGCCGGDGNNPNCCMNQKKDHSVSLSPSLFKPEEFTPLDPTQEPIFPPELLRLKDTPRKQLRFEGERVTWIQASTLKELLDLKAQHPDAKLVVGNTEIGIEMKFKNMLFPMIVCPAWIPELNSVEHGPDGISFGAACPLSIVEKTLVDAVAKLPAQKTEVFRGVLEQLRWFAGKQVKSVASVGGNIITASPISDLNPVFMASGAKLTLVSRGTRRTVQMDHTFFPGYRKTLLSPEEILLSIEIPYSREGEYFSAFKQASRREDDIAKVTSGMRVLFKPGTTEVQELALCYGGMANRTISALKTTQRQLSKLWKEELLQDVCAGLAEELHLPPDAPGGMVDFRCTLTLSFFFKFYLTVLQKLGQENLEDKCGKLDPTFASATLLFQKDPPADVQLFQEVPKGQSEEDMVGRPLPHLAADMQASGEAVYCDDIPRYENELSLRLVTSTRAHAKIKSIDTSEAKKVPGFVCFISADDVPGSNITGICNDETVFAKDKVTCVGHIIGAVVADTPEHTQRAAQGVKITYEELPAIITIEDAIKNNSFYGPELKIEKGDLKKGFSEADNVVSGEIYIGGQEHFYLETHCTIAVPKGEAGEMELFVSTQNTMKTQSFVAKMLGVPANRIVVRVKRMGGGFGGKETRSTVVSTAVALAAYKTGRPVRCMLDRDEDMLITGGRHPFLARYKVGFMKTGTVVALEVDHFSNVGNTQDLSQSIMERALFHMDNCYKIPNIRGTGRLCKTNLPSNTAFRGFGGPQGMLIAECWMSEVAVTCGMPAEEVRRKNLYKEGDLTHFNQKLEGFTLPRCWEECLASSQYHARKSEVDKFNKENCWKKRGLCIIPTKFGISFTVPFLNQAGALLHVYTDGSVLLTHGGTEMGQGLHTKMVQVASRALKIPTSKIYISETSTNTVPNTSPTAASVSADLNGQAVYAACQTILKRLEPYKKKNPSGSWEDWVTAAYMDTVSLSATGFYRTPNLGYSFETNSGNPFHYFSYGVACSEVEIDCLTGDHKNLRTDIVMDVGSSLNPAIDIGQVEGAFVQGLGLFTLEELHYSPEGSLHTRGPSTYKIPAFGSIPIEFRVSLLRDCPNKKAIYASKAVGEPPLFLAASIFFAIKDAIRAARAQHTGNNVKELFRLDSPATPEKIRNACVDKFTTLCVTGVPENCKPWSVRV

`CN1c2c(nc(N)[nH]c2=O)NC[C@@H]1CNc1ccc(C(=O)N[C@@H](CCC(=O)O)C(=O)O)cc1` [5-methyl-(6 S)-tetrahydrofolic acid]: the “urate level after 60 minutes of incubation” value on xanthine oxidase (XO) (50 μM added at the beginning of the incubation, basal 128±20 μM) was determined as 48.7 ± 1.7 µM; at xanthine oxidase (XO) (50 μM added at the end of the incubation, just prior to urate assessment), 49.9 ± 1.9 µM. Also, the “k/kd, reaction rate with superoxide relative to reference spin trap DEPMPO” value is given as “about 175” in data set [1] (HX/XO) and 150 in data set [1] (HX/XO, listed as L-MTHF). Further, the “k, reaction rate with superoxide” value in data set [1] came to 12000 M/s. Further, in data set [1], the “superoxide scavenging, times less potent/slower than ascorbic acid” value was “about 20 fold”. The NO production entry on eNOS [2] (pterin-free eNOS) was “no significant effect on NO production”; on eNOS [2] (setting [7]), “significant increase in NO production”. The acetylcholine-induced nitrite production result in data set [3] is recorded as “significant-further increase in acetylcholine-induced nitrite production”. Moreover, the “effect on rate of superoxide production by pterin-free eNOS” value at eNOS [4] (pterin-free eNOS) is “does not affect the rate of superoxide production”. The radical adduct formation result on eNOS [4] (pterin-free eNOS, 25 μM) was “does not cause significant changes in radical adduct formation”. Also, the “rate of DEPMPO adduct formation” value at eNOS [4] (pterin-repleted eNOS) is “very strong reduction in the rate of DEPMPO adduct formation”.

In the case of `CN1c2c(nc(N)[nH]c2=O)NC[C@H]1CNc1ccc(C(=O)N[C@@H](CCC(=O)O)C(=O)O)cc1` [5-methyl-(6R)-tetrahydrofolic acid], the “k/kd, reaction rate with superoxide relative to reference spin trap DEPMPO” value in data set [1] (HX/XO) is reported as “about 175”; in data set [1] (HX/XO, listed as D-MTHF), 150. The “k, reaction rate with superoxide” value in data set [1] was found to be 12000 M/s. Further, the “superoxide scavenging, times less potent/slower than ascorbic acid” value in data set [1] is recorded as “about 20 fold”. The NO production result on eNOS [2] (pterin-free eNOS) was “no significant effect on NO production”; on eNOS [2] (setting [7]), “significant increase in NO production”. In addition, the “effect on rate of superoxide production by pterin-free eNOS” value at eNOS [4] (pterin-free eNOS) is “does not affect the rate of superoxide production”. At eNOS [4] (pterin-repleted eNOS), the “rate of DEPMPO adduct formation” value is on record as “very strong reduction in the rate of DEPMPO adduct formation”.

Turning to `CN1c2c(nc(N)[nH]c2=O)NCC1CNc1ccc(C(=O)N[C@@H](CCC(=O)O)C(=O)O)cc1` (stereo partly shown) [5-methyltetrahydrofolic acid, 5-methyl-5,6,7,8-tetrahydrofolic acid], on xanthine oxidase (XO), the “effect on rate of urate production by XO” value is listed as “does not affect the rate of urate production”. For the same compound, in data set [1], the “superoxide scavenging, times less potent/slower than ascorbic acid” value is “about 20 fold”. In addition, the nitrite release result in data set [3] (unstimulated endothelial cells) is recorded as “did not affect nitrite release”. In addition, at eNOS [4] (partially BH4-repleted eNOS, 25 μM), the “amount of superoxide adducts” value is reported as “substantial reduction in the amount of superoxide adducts”. For the same compound, the “factor by which superoxide production by eNOS is reduced” value on eNOS [4] (pterin-repleted eNOS, 50 μM, estimated from figure) is on record as 2 fold. For the same compound, the “systemic plasma concentrations of 5-methyltetrahydrofolic acid” value in data set [5] (intra-arterial infusion) is recorded as 250 nM.

On to `N=C(N)NCCC[C@H](N)C(=O)O` [arginine, L-arginine], for which, in data set [1] (HX/XO), the “k/kd, reaction rate with superoxide relative to reference spin trap DEPMPO” value is listed as < 10^−2. In addition, the “effect on formation of DEPMPO adducts” value in data set [1] (HX/XO, up to 100 mM) was “did not affect the formation of DEPMPO adducts”. In addition, in data set [1], the “k, reaction rate with superoxide” value was “neglibile”.

For the compound `O=C1O[C@H]([C@@H](O)CO)C(O)=C1O` [ascorbic acid, reference compound], in data set [6], the “k, reaction rate with superoxide, literature value” is 270000 M/s. Further, the “k/kd, reaction rate with superoxide relative to reference spin trap DEPMPO” value in data set [1] (HX/XO) is 4400. Also, the “k, reaction rate with superoxide” value in data set [1] came out at 350000 M/s.

Regarding `Nc1nc2ncc(CNc3ccc(C(=O)N[C@@H](CCC(=O)O)C(=O)O)cc3)nc2c(=O)[nH]1` [folic acid, reference compound], the “systemic plasma concentrations of 5-methyltetrahydrofolic acid” value in data set [5] (standard oral suppletion of folic acid 5 mg p.o.) was at most 150 nM.

On to `C[C@H](O)C(=O)C1=Nc2c(nc(N)[nH]c2=O)NC1` [sepiapterin, reference compound], for which the acetylcholine-induced nitrite production result in data set [3] was “significant-further increase in acetylcholine-induced nitrite production”.
